Values of other authors in EP4640072A1, “FLEECE MATERIALS TREATED WITH AN ION-PAIRING AGENT AND ORAL PRODUCTS COMPRISING FLEECE MATERIALS TREATED WITH AN ION-PAIRING AGENT” (Nicoventures Trading Limited, priority 2024, dated 2025).

Legend:
[1] = lipophilicity of the organic acid; values obtained from PubChem or calculated
[2] = not given; remark: listed apart in the source
[3] = system: human buccal tissue; conditions: nicotine solution at pH = 6 relative to nicotine solution at pH 8.1; perfusion cell

Molecule | log(P)* [1] | also measured
O=C(/C=C/c1ccc(O)c(O)c1)O[C@@H](C(=O)O)[C@@H](O)C(=O)O [Caftaric acid] | 1.2 | –
ethyl benzoic acid | 2.9 | –
CC(/C=C/C=C(C)/C=C/C(=O)O)=C\C=C\C=C(C)\C=C\C=C(C)\C=C\C(=O)O (stereo in doubt) [norbixin, (2E,4E,6E,8E,10E,12E,14E,16E,18E)-4,8,13,17-tetramethylicosa-2,4,6,8,10,12,14,16,18-nonaenedioic acid] | – | solubility: water soluble
COC(=O)/C=C/C(C)=C\C=C\C(C)=C\C=C\C=C(C)\C=C\C=C(C)\C=C\C(=O)O [bixin, (2E,4E,6E,8E,10E,12E,14E,16Z,18E)-20-methoxy-4,8,13,17-tetramethyl-20-oxoicosa-2,4,6,8,10,12,14,16,18-nonaenoic acid] | – | solubility: soluble in fats and alcohols but insoluble in water; chemical stability (when isolated, converts via isomerization into trans-bixin (β-bixin)): chemically unstable when isolated
isopropyl benzoic acid | 3.5 | –
CCCCCCCCCCCC(=O)O [dodecanoic acid] | 4.6 | –
CCCCCCCC(=O)O [octanoic acid] | 3.05 | –
CC(C)[C@@H]1CC[C@@H](C)C[C@H]1OC(=O)CCC(=O)O [monomenthyl succinate] | 3 | –
CCCCCCCS(=O)(=O)O [1-heptanesulfonic acid] | 2.0 | –
CN1CCCC1c1cccnc1 (stereo not shown) [nicotine] | – | log Kα1 ([2]; pyridine ring nitrogen): 3.41; log Ka2 ([2]; pyrrolidine ring nitrogen): 8.02; factor by which the rate of diffusion across human buccal tissue was reduced [3]: ~ 7
